This passage reports MIC results from ChEMBL document CHEMBL1671649, “Mutations in three distinct loci cause resistance to peptide deformylase inhibitors in Bacillus subtilis” (2009).

Values after ≈ are worked out from the molar mass of the structure shown.

What all share (assay type): functional
Assay [1] deals with Bacillus subtilis. Put plainly: Antimicrobial activity against Bacillus subtilis harboring fmt S110P mutant after 17 hrs by microtiter broth dilution method. Background: In broth dilution the organism is exposed to a series of concentrations in liquid medium.
The test system of assay [2] is Bacillus subtilis. In words: Antimicrobial activity against Bacillus subtilis harboring fmt with 295 to 639 base pair deletion mutation after 17 hrs by microtiter broth dilution method.
Assay [3] deals with Bacillus subtilis. In words: Antimicrobial activity against Bacillus subtilis harboring fmt with deletion mutation at base pair 745 after 17 hrs by microtiter broth dilution method.
The test system of assay [4] is Bacillus subtilis. In words: Antimicrobial activity against Bacillus subtilis harboring folD T184M mutant after 17 hrs by microtiter broth dilution method.
Assay [5] relates to Bacillus subtilis. Put plainly: Antimicrobial activity against Bacillus subtilis harboring fmt AGA to TGA and R3stop mutation after 17 hrs by microtiter broth dilution method.
Assay [6] has as its system Bacillus subtilis. In words: Antimicrobial activity against Bacillus subtilis harboring fmt with base pair insertion at position 745 after 17 hrs by microtiter broth dilution method.
In assay [7] the test system is Bacillus subtilis. Put plainly: Antimicrobial activity against Bacillus subtilis harboring fmt P113L mutant after 17 hrs by microtiter broth dilution method.
Assay [8] relates to Bacillus subtilis. Put plainly: Antimicrobial activity against Bacillus subtilis harboring fmt with deletion mutation at base pair 119 after 17 hrs by microtiter broth dilution method.
Assay [9] concerns Bacillus subtilis. In words: Antimicrobial activity against Bacillus subtilis harboring fmt G118D mutant after 17 hrs by microtiter broth dilution method.
In assay [10] the test system is Bacillus subtilis. Put plainly: Antimicrobial activity against Bacillus subtilis harboring folD E17Q mutant after 17 hrs by microtiter broth dilution method.
Assay [11] concerns Bacillus subtilis. Put plainly: Antimicrobial activity against Bacillus subtilis harboring folD with deletion mutation of base pair 507 to 518 after 17 hrs by microtiter broth dilution method.
Assay [12] concerns Bacillus subtilis. Put plainly: Antimicrobial activity against Bacillus subtilis harboring glyA with deletion mutation of base pair 661 to 663 after 17 hrs by microtiter broth dilution method.
The test system of assay [13] is Bacillus subtilis. In words: Antimicrobial activity against Bacillus subtilis harboring fmt P120L mutant after 17 hrs by microtiter broth dilution method.
Assay [14] concerns Bacillus subtilis. Put plainly: Antimicrobial activity against Bacillus subtilis harboring fmt R116C mutant after 17 hrs by microtiter broth dilution method.
Assay [15] concerns Bacillus subtilis. Put plainly: Antimicrobial activity against Bacillus subtilis harboring folD S71Q, S72Q and L73P mutant after 17 hrs by microtiter broth dilution method.
For assay [16], the system named is Bacillus subtilis. Put plainly: Antimicrobial activity against Bacillus subtilis harboring fmt R116P mutant after 17 hrs by microtiter broth dilution method.
For assay [17], the system named is Bacillus subtilis. Put plainly: Antimicrobial activity against Bacillus subtilis harboring fmt H108R mutant after 17 hrs by microtiter broth dilution method.

As usually defined, the MIC is the lowest concentration found to suppress growth. A low value points to a more susceptible organism. As for `CCCCC[C@H](CC(=O)NO)C(=O)N[C@H](C(=O)N1CCC[C@H]1CO)C(C)C` [ACTINONIN], the MIC in [1] was greater than 512 µg/mL; in [2], greater than 512 µg/mL; in assay [3], 96 µg/mL (≈ 249 µM); in [4], 192 µg/mL (≈ 498 µM); in assay [5], 192 µg/mL (≈ 498 µM); in [6], 96 µg/mL (≈ 249 µM). Further, the MIC in assay [7] is 96 µg/mL (≈ 249 µM); in [8], 192 µg/mL (≈ 498 µM); in assay [9], greater than 512 µg/mL; in [10] it was 192 µg/mL (≈ 498 µM); in [11] it was greater than 512 µg/mL; in assay [12] it was greater than 512 µg/mL. The MIC in [13] was greater than 512 µg/mL; in [14] it was 48 µg/mL (≈ 125 µM); in assay [15] it was greater than 512 µg/mL; in assay [16], greater than 512 µg/mL; in assay [17] it was greater than 512 µg/mL.
